Laboratory results as given in patent US8114904B2, “Luminescence quenchers and fluorogenic probes for detection of reactive species” (Versitech Limited & Morningside Ventures Limited, priority 2008, dated 2012).

Columns and labels:
[1] = Emission spectra of the probe itself; type: physicochemical; details: 1 μM, 0.1 M phosphate buffer pH 7.4, excitation 515 nm, Hitachi F2500, 700 V
Protocol: Compound 10 obtained in Example 4 was dissolved in DMF to a concentration of 10 mM, and then the solution was diluted to 10 μM by 0.1 M phosphate buffer (pH 7.4). The fluorescence spectrum of the 10 μM solution of Compound 10 was measured using a Hitachi F2500 fluorescence spectrometer and the photomultiplier voltage was 700 V. The slit width was 2.5 nm for both excitation and emission. The measurement was carried out at an excitation wavelength of 520 nm. The results shown in FIG. 1 indicate that Compound 10 itself is non-fluorescent.
Compound 12 obtained in Example 5 was dissolved in DMF to a concentration of 1 mM, and then the solution was diluted to 1 μM by 0.1 M phosphate buffer (pH 7.4). The fluorescence spectrum of the 1 μM solution of Compound 12 was measured using a Hitachi F2500 fluorescence spectrometer and the photomultiplier voltage was 700 V. The slit width was 2.5 nm for both excitation and emission. The measurement was carried out at an excitation wavelength of 515 nm. The results shown in FIG. 4 indicate that Compound 12 itself is non-fluorescent.
Compound 14 obtained in Example 6 was dissolved in DMF to a concentration of 1 mM, and then the solution was diluted to 1 μM by 0.1 M phosphate buffer (pH 7.4). The fluorescence spectrum of the 1 μM solution of Compound 14 was measured using a Hitachi F2500 fluorescence spectrometer and the photomultiplier voltage was 700 V. The slit width was 2.5 nm for both excitation and emission. The measurement was carried out at an excitation wavelength of 515 nm. The results shown in FIG. 6 indicate that Compound 14 itself is non-fluorescent.
Compound 30 obtained in Example 7 was dissolved in DMF to a concentration of 10 mM, and then the solution was diluted to 10 μM by 0.1 M phosphate buffer (pH 7.4). The fluorescence spectrum of the 10 μM solution of Compound 30 was measured using a Hitachi F7000 fluorescence spectrometer and the photomultiplier voltage was 900 V. The slit width was 2.5 nm for both excitation and emission. The measurement was carried out at an excitation wavelength of 520 nm.

[2] = Detection of hypochlorite: fluorescence spectra after addition of NaOCl; details: 1 μM probe
Protocol: Compound 14 obtained in Example 6 was dissolved in DMF to a concentration of 1 mM, and then the solution was diluted to 1 μM by 0.1 M potassium phosphate buffer (pH 7.4). Commercial bleach was the source of NaOCl. The concentration of NaOCl was determined by titration with sodium thiosulfate solution which was standardized by the titration with KlO3. Then NaOCl was added to provide final concentrations of 0, 2, 3, 4, 5, 6, 7, and 8 μM. Fluorescence spectra of the solutions were measured after 5 minutes under the same conditions as mentioned above.

[3] = Comparison of specificity with different ROS and RNS; details: 1 μM probe in 0.1 M potassium phosphate buffer
Protocol: The reactivity of Compound 10 was compared toward different reactive oxygen species (ROS) and reactive nitrogen species (RNS), including OCl^−, H2O2, ^1O2, NO, O2^•−, ^•OH, ONOO^− and alkylperoxyl radical (ROO^•). Different reactive oxygen species and reactive nitrogen species were added independently to 5 mL of the solution of Compound 10 (10 μM in 0.1 M potassium phosphate buffer). The changes of fluorescence intensity before and after the treatment were measured. The reactive oxygen species and reactive nitrogen species were prepared as follows. • a. H2O2 (final 100 μM) was added and then stirred for 1 hour at 25° C. • b. (3-(1,4-Dihydro-1,4-epidioxy-1-naphthyl)propionic acid) (final 100 μM) was added and then stirred at 25° C. for 1 hour. • c. 2,2′-Azobis(2-amidinopropane)dihydrochloride (final 100 μM) was added and then stirred at 25° C. for 1 hour. • d. SNP (Sodium Nitroferricyanide (III) Dihydrate) (final 100 μM) was added and then stirred for 1 hour at 25° C. • e. O2^•− was generated by xanthine and xanthine oxidase. Xanthine oxidase was added firstly. After xanthine oxidase was dissolved, xanthine (final 100 μM) was added and the mixtures were stirred at 25° C. for 1 hour. • f. Ferrous chloride (final 10 μM) was added in the presence of 10 equivalences of H2O2 (100 μM). • g. ONOO^− (final 10 μM) was added at 25° C. • h. NaOCl (final 10 μM) was added at 25° C. Commercial bleach was the source of NaOCl.
The reactivity of Compound 12 was compared toward different reactive oxygen species (ROS) and reactive nitrogen species (RNS), including OCl^−, H2O2, ^1O2, NO, O2^•−, ^•OH, ONOO^− and alkylperoxyl radical (ROO^•). Different reactive oxygen species and reactive nitrogen species were added independently to 5 mL of the solution of Compound 12 (1 μM in 0.1 M potassium phosphate buffer). The changes of fluorescence intensity before and after the treatment were measured. The reactive oxygen species and reactive nitrogen species were prepared as follows: • i. H2O2 (final 100 μM) was added and then stirred for 1 hour at 25° C. • j. (3-(1,4-Dihydro-1,4-epidioxy-1-naphthyl)propionic acid) (final 100 μM) was added and then stirred at 25° C. for 1 hour. • k. 2,2′-Azobis(2-amidinopropane)dihydrochloride (final 100 μM) was added and then stirred at 25° C. for 1 hour. • l. SNP (Sodium Nitroferricyanide (III) Dihydrate) (final 100 μM) was added and then stirred for 1 hour at 25° C. • m. O2^•− was generated by xanthine and xanthine oxidase. Xanthine oxidase was added firstly. After xanthine oxidase was dissolved, xanthine (final 100 μM) was added and the mixtures were stirred at 25° C. for 1 hour. • n. Ferrous chloride (final 10 μM) was added in the presence of 10 equivalences of H2O2 (100 μM). • o. ONOO^− (final 10 μM) was added at 25° C. • p. NaOCl (final 10 μM) was added at 25° C. Commercial bleach was the source of NaOCl.
The reactivity of Compound 14 was compared toward different reactive oxygen species (ROS) and reactive nitrogen species (RNS), including OCl^−, H2O2, ^1O2, NO, O2^•−, ^•OH, ONOO^− and alkylperoxyl radical (ROO^•). Different reactive oxygen species and reactive nitrogen species were added independently to 5 mL of the corresponding solution of Compound 14 (1 μM in 0.1 M potassium phosphate buffer). The changes in fluorescence intensity before and after the treatment were measured. The reactive oxygen species and reactive nitrogen species were prepared as follows: • a. H2O2 (final 100 μM) was added and then stirred for 1 hour at 25° C. • b. (3-(1,4-Dihydro-1,4-epidioxy-1-naphthyl)propionic acid) (final 100 μM) was added and then stirred at 25° C. for 1 hour. • c. 2,2′-Azobis(2-amidinopropane)dihydrochloride (final 100 μM) was added and then stirred at 25° C. for 1 hour. • d. SNP (Sodium Nitroferricyanide (III) Dihydrate) (final 100 μM) was added and then stirred for 1 hour at 25° C. • e. O2^•− was generated by xanthine and xanthine oxidase. Xanthine oxidase was added firstly. […]

[4] = UV-visible absorption spectrum; type: physicochemical; details: 1 μM solution, pH 7.4 0.1 M phosphate buffer, 0.1% DMF
Protocol: Compound 10 obtained in Example 4 was dissolved in pH 7.4 0.1 M phosphate buffer containing 0.1% DMF as cosolvent to form a 10 μM solution.
Compound 12 obtained in Example 5 was dissolved in pH 7.4 0.1 M phosphate buffer containing 0.1% DMF as cosolvent to form a 1 μM solution.
Compound 14 obtained in Example 6 was dissolved in pH 7.4 0.1 M phosphate buffer containing 0.1% DMF as cosolvent to form a 1 μM solution.
Compound 30 obtained in Example 7 was dissolved in pH 7.4 0.1 M phosphate buffer containing 0.1% DMF as cosolvent to form a 10 μM solution. The absorption spectrum of the 10 μM solution of Compound 30 was measured.

CN(c1ccc(N)cc1)c1ccc2c(c1)Oc1cc(O)ccc1C21OC(=O)c2ccccc21 (stereo not drawn) [Compound 14]
fluorescence of the probe itself [1]: non-fluorescent | fluorescence intensity at 535 nm with increasing concentration of hypochlorite ([2]; 0.1 M potassium phosphate buffer pH 7.4): increases linearly | fluorescence intensity after the addition of hypochlorite ([2]; NaOCl 0-8 μM, 0.1 M potassium phosphate buffer pH 7.4, after 5 minutes, excitation 515 nm): increase significantly | reactivity among ROS and RNS in an abiotic system [3]: much higher reactivity towards hypochlorite | fluorescence enhancement by hypochlorite compared with any other ROS and RNS ([3]; 25° C.): much stronger fluorescence enhancement | absorption maximum [4]: about 515 nm
